Assay results as given in patent US20090318509A1, “Oxime Derivatives as Inhibitors of Macrophage Migration Inhibitory Factor” (priority 2006, published 2009).
pIC50: −log10 of the molar value. “Also recorded” adds a separate entry of the source. Like-named read-outs stand apart in the source and are kept apart here. One block for each molecule: values may come before it.

How the values were obtained:
MIF [1] = biological target: T1, MIF (Homo sapiens, UniProt P14174); assay: MIF dopachrome tautomerase activity inhibition; type: biochemical; parameters: 1 μL of MIF solution (800-900 ng/mL)
T1 sequence (P14174 2-115 limits assumed): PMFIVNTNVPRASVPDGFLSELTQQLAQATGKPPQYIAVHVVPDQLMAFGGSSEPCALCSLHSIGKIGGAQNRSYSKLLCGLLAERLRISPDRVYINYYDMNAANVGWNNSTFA
Procedure: MIF tautomerase activity was measured by UV-Visible recording spectrophotometry (SHIMADZU, UV 1600U). A fresh stock solution of L-dopachrome methyl ester was prepared at 2.4 mM through oxidation of L3,4-dihydroxyphenylalanine methyl ester with sodium periodate. 1 μL of MIF solution (800-900 ng/mL) and 1 μL of a DMSO solution with various concentrations of the enzymatic inhibitor were added into a plastic cuvette (10 mm, 1.5 mL) containing 0.7 mL assay buffer (1× potassium phosphate, pH 7.2). The L-dopachrome methyl ester solution (0.3 mL) was added to the assay buffer mixture.

endotoxemia and sepsis = conditions: intraperitoneal, 40 mg/kg; Al-Abed et al., 2005; cited from earlier work
[2] = system: TNF release by LPS-treated macrophages; conditions: in vitro; cited from earlier work
MIF [3] = biological target: T1, MIF; assay: MIF glucocorticoid-regulating (proinflammatory) activity in LPS-treated macrophages, TNF-α production; type: cell-based; parameters: dexamethasone plus MIF (3 nM purified native MIF); host or cells: added to monocyte-derived macrophages from human peripheral blood
Procedure: (§1) TNF-α production was then measured. The data shown are mean ±SD of triplicate wells in experiments that were repeated twice.

CLP sepsis = assay: cecal ligation and puncture (CLP) sepsis survival; type: in vivo; conditions: mice, intraperitoneal, first injection 24 hours after CLP, further injections day 2 and 3, FIG. 6
Procedure: FIG. 6 is a graph showing that Cyc-Oxi-II is protective even when given 24 h after the induction of sepsis.
An additional two injections were given, on day 2 and day 3. Thirteen mice were tested.

[4] = system: TNF release by LPS-stimulated human macrophages; assay: TNF release from LPS-stimulated macrophages; type: cell-based; conditions: FIG. 4
Procedure: as §1
It has been shown that the macrophage is an abundant source of MIF (Calandra et al., 1994), which is released after LPS stimulation. This led to an examination of the autocrine and paracrine activity of secreted MIF in vitro.

antibacterial effect = conditions: preliminary studies
[5] = preliminary acute toxicity screening; type: in vivo
Source text: Design of Cyc-Oxi-11. ISO-1, the pharmacological inhibitor of MIF, neutralizes exogenous and endogenous MIF in in vitro and in vivo models. This indicates the successful application of chemical approaches to antagonize MIF biological activities. Although ISO-1 has significant anti-inflammatory activity, development of better inhibitors was desired. […] Representative structures of the novel oxime scaffold are presented in Table I, with their IC50 of inhibiting MIF dopachrome tautomerase activity.

[6] = Table 2, additional MIF inhibitors, read-out: IC50 MIF inhibitory activity in vitro
[7] = Table 1, left column pair, read-out: IC50 inhibition of MIF tautomerase activity

pIC50 (MIF [1]; [6]): 6.15
SMILES: CC(C)(C)OC(=O)NOC(=O)C1CCCC1 [BKII-93]

pIC50 (MIF [1]; [6]): 6.43
SMILES: CC(C)(C)OC(=O)NOC(=O)C1CCC1 [BKII-92]

pIC50 (MIF [1]; [6]): 5.92
SMILES: COc1ccc(C(=O)ONC(=O)OC(C)(C)C)cc1 [BKII-99]

pIC50 (MIF [1]; [6]): 4.71
SMILES: CC(C)(C)OC(=O)NOC(=O)C1CCCCC1 [BKII-85]

pIC50 (MIF [1]; [6]): 6.64
SMILES: CC(C)(C)OC(=O)NOC(=O)c1ccccc1 [BKII-98]

pIC50 (MIF [1]; [6]): 5.72
SMILES: CC(C)(C)OC(=O)NOC(=O)C1CC1 [BKII-91]

pIC50 (MIF [1]; [6]): 4.22
SMILES: CC(C)(C)OC(=O)NNC(=O)C1CCCCC1 [BKII-90]

Continued, molecule first:

SMILES: COc1ccc(C(=O)ON=Cc2ccc(O)cc2)cc1 [Compound 4]
pIC50 (MIF [1]; read-out: IC50 of MIF dopachrome tautomerase activity): 5.96

SMILES: CC(C)(C)OC(=O)NOC(=O)c1ccc(F)cc1 [BKIII-8W]
pIC50 (MIF [1]; [6]): 6.57

SMILES: CC(C)(C)OC(=O)NOC(=O)c1ccc(OC(=O)c2ccc(O)cc2)cc1 [BKIII-6Y]
pIC50 (MIF [1]; [6]): 4.30

SMILES: CC(C)(C)OC(=O)NOC(=O)c1ccc(Cl)cc1 [BKIII-8Y]
pIC50 (MIF [1]; [6]): 6.06

SMILES: COC(=O)C[C@@H]1CC(c2ccc(O)cc2)=NO1 (racemic) [ISO-1, (S,R)-3-(4-hydroxyphenyl)-4,5-dihydro-5-isoxazole acetic acid methyl ester]
survival rate (endotoxemia and sepsis): increased the survival rate
inhibition of TNF release [2]: 60%

SMILES: COc1ccc(OC(=O)O/N=C/c2ccc(O)c(F)c2)cc1 [Compound 5, (E)-3-fluoro-4-hydroxybenzaldehyde O-4′-methoxyphenyl carbonyloxime]
improvement of inhibition of dopachrome tautomerase activity over parent compound (MIF [1]; mono-fluorinated analogue versus parent): 63%

SMILES: O=C(O/N=C/c1ccc(O)cc1)C1CCCC1
pIC50 (MIF [1]; [7]): 5.32

SMILES: CC(C)(C)OC(=O)NOC(=O)c1ccc(I)cc1 [BKIII-9Y]
pIC50 (MIF [1]; [6]): 5.77

SMILES: O=C(O/N=C/c1ccc(O)cc1)C1CCCCC1 [Cyc-Oxi-11, (E)-4-hydroxybenzaldehyde O-cyclohexanecarbonyloxime]
potency versus ISO-1 in MIF tautomerase inhibition (MIF [1]; relative to ISO-1): 30 fold
inhibition of MIF-dependent interference with glucocorticoids (MIF [3]; LPS-stimulated human macrophages, FIG. 3): significantly inhibited; also recorded: suppresses the ability of MIF to regulate glucocorticoids
potency versus ISO-1 as inhibitor of MIF proinflammatory activity in vitro (MIF [3]; relative to ISO-1): 30 fold
deaths / protection after CLP (CLP sepsis): considerably reduced the deaths caused by CLP
deaths / protection after CLP (CLP sepsis; listed as Cyc-Oxi-II): protective
inhibition of TNF release [4]: inhibits TNF release in vitro; also recorded: in a dose-dependent manner, inhibits TNF release; also recorded: inhibits MIF induction of TNF release
antibacterial effect (antibacterial effect): negative
acute toxicity, intraperitoneal injection ([5]; doses up to 100 mg/Kg): no evidence of toxicity
toxicity at high doses ([5]; high doses, both in vitro and in vivo): lacks obvious toxicity

SMILES: CC(C)(C)OC(=O)NOC(=O)c1ccc(C(F)(F)F)cc1 [BKIII-9W]
pIC50 (MIF [1]; [6]): 4.16

SMILES: CC(C)(C)OC(=O)NOC(=O)c1ccc(Br)cc1 [BKIII-11Y]
pIC50 (MIF [1]; [6]): 5.89

SMILES: O=C(O/N=C/c1ccc(O)cc1)C1CCC1
pIC50 (MIF [1]; [7]): 4.92

SMILES: CC(C)(C)OC(=O)NOC(=O)c1c(F)c(F)c(F)c(F)c1F [BKIII-6W]
pIC50 (MIF [1]; [6]): 3.93
